The source of these data is patent publication US12679843B2, “Pyrrolopyrimidine amines as complement inhibitors” (BioCryst Pharmaceuticals, Inc., priority 2020, dated 2026).

The test concerns the target Factor D (Homo sapiens, UniProt P00746). The test can be described thus: Factor D esterolytic assay (Z-Lys-SBzl thioester substrate, DTNB, 405 nm). The format is biochemical. The conditions noted are these: substrate Z-Lys-SBzl 1.29 mM, 100 mM HEPES, 500 mM NaCl, pH 7.5, 10% DMSO, tested a minimum of three times. A digest of the protocol: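 Human Factor D hydrolysis of Z-Lys-SBzl (1.29 mM) monitored at 405 nm via DTNB thiol detection for 600 s, 690 nm background subtracted. Buffer 100 mM HEPES, 500 mM NaCl, pH 7.5, 10% DMSO; substrate added immediately or after room-temperature preincubation. IC50 from percent inhibition of rate, at least three tests.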

SMILES strings stand for the structures.

Chain of Factor D (P00746 26-253): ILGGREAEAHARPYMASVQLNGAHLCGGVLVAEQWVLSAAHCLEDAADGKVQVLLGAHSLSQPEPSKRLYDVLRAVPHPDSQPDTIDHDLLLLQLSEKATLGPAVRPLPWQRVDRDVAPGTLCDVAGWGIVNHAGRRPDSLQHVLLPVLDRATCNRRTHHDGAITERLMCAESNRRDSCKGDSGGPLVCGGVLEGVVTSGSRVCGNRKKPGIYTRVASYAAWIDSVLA

In general, IC50 refers to the concentration needed to halve the response being measured. Consider `Cc1cc2c(cc1Br)c1c(N)ncnc1n2CC(=O)N1[C@H](C(=O)Nc2cccc(Br)n2)C[C@@]2(C)C[C@@H]12` [Compound 380a, (1R,3S,5R)-2-(2-(4-amino-6-bromo-7-methyl-9H-pyrimido[4,5-b]indol-9-yl)acetyl)-N-(6-bromopyridin-2-yl)-5-methyl-2-azabicyclo[3.1.0]hexane-3-carboxamide], for which the IC50 is less than 100 nM.
Take `Cc1cc2c(cc1F)c1c(N)ncnc1n2CC(=O)N1[C@@H]2C[C@@H]2C[C@H]1C(=O)Nc1cccc(Br)n1` [Compound 381g, (1R,3S,5R)-2-(2-(4-amino-6-fluoro-7-methyl-9H-pyrimido[4,5-b]indol-9-yl)acetyl)-N-(6-bromopyridin-2-yl)-2-azabicyclo[3.1.0]hexane-3-carboxamide]: the IC50 was less than 100 nM.
With `Cc1cc2c(cc1F)c1c(N)ncnc1n2CC(=O)N1[C@H](C(=O)Nc2cccc(Br)n2)C[C@@]2(C)C[C@@H]12` [Compound 382a, (1R,3S,5R)-2-(2-(4-amino-6-fluoro-7-methyl-9H-pyrimido[4,5-b]indol-9-yl)acetyl)-N-(6-bromopyridin-2-yl)-5-methyl-2-azabicyclo[3.1.0]hexane-3-carboxamide], the IC50 was less than 100 nM.
With `COc1cc2c(cc1F)c1c(N)ncnc1n2CC(=O)N1[C@@H]2C[C@@H]2C[C@H]1C(=O)Nc1cccc(Br)n1` [Compound 383g, (1R,3S,5R)-2-(2-(4-amino-6-fluoro-7-methoxy-9H-pyrimido[4,5-b]indol-9-yl)acetyl)-N-(6-bromopyridin-2-yl)-2-azabicyclo[3.1.0]hexane-3-carboxamide], the IC50 was less than 100 nM.
With `Cc1cc2c3c(N)ncnc3n(CC(=O)N3[C@@H]4C[C@@H]4C[C@H]3C(=O)Nc3cccc(Br)n3)c2cc1F` [Compound 384g, (1R,3S,5R)-2-(2-(4-amino-7-fluoro-6-methyl-9H-pyrimido[4,5-b]indol-9-yl)acetyl)-N-(6-bromopyridin-2-yl)-2-azabicyclo[3.1.0]hexane-3-carboxamide], the 50% inhibitory concentration (IC50) is less than 100 nM.
Consider `Cc1cc2c3c(N)ncnc3n(CC(=O)N3[C@H](C(=O)Nc4cccc(Br)n4)C[C@@]4(C)C[C@@H]34)c2cc1F` [Compound 385a, (1R,3S,5R)-2-(2-(4-amino-7-fluoro-6-methyl-9H-pyrimido[4,5-b]indol-9-yl)acetyl)-N-(6-bromopyridin-2-yl)-5-methyl-2-azabicyclo[3.1.0]hexane-3-carboxamide], for which the IC50 was less than 100 nM.
Take `Nc1ncnc2c1c1cc(F)c(F)cc1n2CC(=O)N1[C@@H]2C[C@@H]2C[C@H]1C(=O)Nc1cccc(Br)n1` [Compound 386g, (1R,3S,5R)-2-(2-(4-amino-6,7-difluoro-9H-pyrimido[4,5-b]indol-9-yl)acetyl)-N-(6-bromopyridin-2-yl)-2-azabicyclo[3.1.0]hexane-3-carboxamide]: the IC50 was less than 100 nM.
On to `C[C@@]12C[C@@H](C(=O)Nc3cccc(Br)n3)N(C(=O)Cn3c4cc(F)c(F)cc4c4c(N)ncnc43)[C@@H]1C2` [Compound 387a, (1R,3S,5R)-2-(2-(4-amino-6,7-difluoro-9H-pyrimido[4,5-b]indol-9-yl)acetyl)-N-(6-bromopyridin-2-yl)-5-methyl-2-azabicyclo[3.1.0]hexane-3-carboxamide], for which the IC50 is less than 100 nM.
The result for `COc1cc2c(cc1F)c1c(N)ncnc1n2CC(=O)N1[C@H](C(=O)Nc2cccc(Br)n2)C[C@@]2(C)C[C@@H]12` [Compound 388a, (1R,3S,5R)-2-(2-(4-amino-6-fluoro-7-methoxy-9H-pyrimido[4,5-b]indol-9-yl)acetyl)-N-(6-bromopyridin-2-yl)-5-methyl-2-azabicyclo[3.1.0]hexane-3-carboxamide] reads less than 100 nM; that for `Nc1ncnc2c1c1cc(Br)c(F)cc1n2CC(=O)N1[C@@H]2C[C@@H]2C[C@H]1C(=O)Nc1cccc(Br)n1` [Compound 389g, (1R,3S,5R)-2-(2-(4-amino-6-bromo-7-fluoro-9H-pyrimido[4,5-b]indol-9-yl)acetyl)-N-(6-bromopyridin-2-yl)-2-azabicyclo[3.1.0]hexane-3-carboxamide], less than 100 nM; that for `C[C@@]12C[C@@H](C(=O)Nc3cccc(Br)n3)N(C(=O)Cn3c4cc(F)c(Br)cc4c4c(N)ncnc43)[C@@H]1C2` [Compound 390a, (1R,3S,5R)-2-(2-(4-amino-6-bromo-7-fluoro-9H-pyrimido[4,5-b]indol-9-yl)acetyl)-N-(6-bromopyridin-2-yl)-5-methyl-2-azabicyclo[3.1.0]hexane-3-carboxamide], less than 100 nM.
Regarding `Cc1cc(F)c2c(c1)c1c(N)ncnc1n2CC(=O)N1[C@@H]2C[C@@H]2C[C@H]1C(=O)Nc1cccc(Br)n1` [Compound 391g, (1R,3S,5R)-2-(2-(4-amino-8-fluoro-6-methyl-9H-pyrimido[4,5-b]indol-9-yl)acetyl)-N-(6-bromopyridin-2-yl)-2-azabicyclo[3.1.0]hexane-3-carboxamide], the IC50 is less than 100 nM.
Regarding `Cc1cc(F)c2c(c1)c1c(N)ncnc1n2CC(=O)N1[C@H](C(=O)Nc2cccc(Br)n2)C[C@@]2(C)C[C@@H]12` [Compound 392a, (1R,3S,5R)-2-(2-(4-amino-8-fluoro-6-methyl-9H-pyrimido[4,5-b]indol-9-yl)acetyl)-N-(6-bromopyridin-2-yl)-5-methyl-2-azabicyclo[3.1.0]hexane-3-carboxamide], the IC50 is less than 100 nM.
